In brackets after ≈: the same amount, converted by molar mass.

Series [1] deals with recombinant human Estrogen Receptor alpha ligand binding domain (ER alpha-LBD (GST)) (Homo sapiens (Human), UniProt P03372). Kind of series: ERα binding assay (LanthaScreen TR-FRET competition). A general note: In TR-FRET formats the signal depends on donor and acceptor labels being close together.
Protocol: The ability of compounds to bind to isolated Estrogen Receptor Alpha Ligand binding domain (ER alpha—LBD (GST)) was assessed in competition assays using a LanthaScreen Time-Resolved Fluorescence Resonance Energy Transfer (TR-FRET) detection end-point. For the LanthaScreen TR-FRET endpoint, a suitable fluorophore (Fluormone ES2, ThermoFisher, Product code P2645) and recombinant human Estrogen Receptor alpha ligand binding domain, residues 307-554 (expressed and purified in-house) were used to measure compound binding. The assay principle is that ER alpha-LBD (GST) is added to a fluorescent ligand to form a receptor/fluorophore complex. A terbium-labelled anti-GST antibody (Product code PV3551) is used to indirectly label the receptor by binding to its GST tag, and competitive binding is detected by a test compound's ability to displace the fluorescent ligand, resulting in a loss of TR-FRET signal between the Tb-anti-GST antibody and the tracer. The assay was performed as follows with all reagent additions carried out using the Beckman Coulter BioRAPTR FRD microfluidic workstation: • 1. Acoustic dispense 120 nL of the test compound into a black low volume 384 well assay plates. • 2. Prepare 1× ER alpha-LBD/Tb-antiGST Ab in ES2 screening buffer and incubate for 15 minutes. • 3. […] Cover the assay plate to protect the reagents from light and evaporation, and incubate at room temperature for 4 hours. • 5. Excite at 337 nm and measure the fluorescent emission signal of each well at 490 nm and 520 nm using the BMG PheraSTAR.
TR-FRET dose response data obtained with each compound was exported into a suitable software package (such as Origin or Genedata) to perform curve fitting analysis. Competitive ER alpha binding was expressed as an IC50 value.
Series [2] deals with Estrogen Receptor (ERα) in MCF-7 cells (Homo sapiens (Human), UniProt P03372). Kind of series: MCF-7 ER down-regulation assay (immuno-fluorescence). Particulars: for % downregulation (in brackets): maximum downregulation. It is filed as cell-based.
Protocol: The ability of compounds to down-regulate Estrogen Receptor (ER) numbers was assessed in a cell based immuno-fluorescence assay using the MCF-7 human ductal carcinoma breast cell line. MCF-7 cells were revived directly from a cryovial (approx 5×10^6 cells) in Assay Medium (phenol red free Dulbecco's Modified Eagle's medium (DMEM); Sigma D5921) containing 2 mM L-Glutamine and 5% (v/v) Charcoal/Dextran treated foetal calf serum. Cells were syringed once using a sterile 18G×1.5 inch (1.2×40 mm) broad gauge needle and cell density was measured using a Coulter Counter (Beckman). […] Following cell seeding, plates were incubated overnight at 37° C., 5% CO2 (Liconic carousel incubator). Test data was generated using the LabCyte Echomodel 555 compound reformatter which is part of an automated workcell (Integrated Echo 2 workcell). Compound stock solutions (10 mM) of the test compounds were used to generate a 384 well compound dosing plate (Labcyte P-05525-CV1). […] 40 μL of DMSO added to wells in row P on the source plate allowed for DMSO normalisation across the dose range. To dose the control wells 40 μL of DMSO was added to row O1 and 40 μL of 100 μM fulvestrant in DMSO was added to row O3 on the compound source plate.
The Echo uses acoustic technology to perform direct microplate-to-microplate transfers of DMSO compound solutions to assay plates. The system can be programmed to transfer volumes as low as 2.5 nL in multiple increments between microplates and in so doing generates a serial dilution of compound in the assay plate which is then back-filled to normalise the DMSO concentration across the dilution range. […] The fixing method described above was carried out on the Integrated Echo 2 workcell. Immunostaining was performed using an automated AutoElisa workcell. The PBS/Proclin was aspirated from all wells and the cells permeabilised with 40 μL PBS containing 0.5% Tween™ 20 (v/v) for 1 hour at room temperature. The plates were washed three times in 250 μL of PBS/0.05% (v/v) Tween 20 with Proclin (PBST with a Biocide preservative) and then 20 μL of ERα (SP1) Rabbit monoclonal antibody (Thermofisher) 1:1000 in PBS/Tween™/3% (w/v) Bovine Serum Albumin was added. The plates were incubated overnight at 4° C. (Liconic carousel incubator) and then washed three times in 250 μL of PBS/0.05% (v/v) Tween™ 20 with Proclin (PBST). The plates were then incubated with 20 μL/well of a goat anti-rabbit IgG AlexaFluor 594 or goat anti-rabbit AlexaFluor 488 antibody (Molecular Probes) with Hoechst at 1:5000 in PBS/Tween™/3% (w/v) Bovine Serum Albumin for 1 hour at room temperature. The plates were then washed three times in 250 μL of PBS/0.05% (v/v) Tween™ 20 with Proclin (PBST with a Biocide preservative). 20 μL of PBS was added to each well and the plates covered with a black plate seal and stored at 4° C. before being read. […] The mean total intensity was normalized for cell number giving the total intensity per cell. The data was exported into a suitable software package (such as Origin) to perform curve fitting analysis.
A short description of series [3]: Human plasma protein binding (equilibrium dialysis). The class given is in vitro ADME. A general note: In equilibrium dialysis free small molecules cross a membrane that holds back macromolecules.
Series [4] in a line: Thermodynamic solubility (shake-flask). It is filed as physicochemical. Particulars: aqueous phosphate buffer, 25 °C, pH 7.4, aqueous buffer, thermodynamic from solid, phosphate buffer pH 7.4, 24 hours.
Protocol: The thermodynamic solubility of a research compound is measured under standard conditions. It is a shake-flask approach that uses 10 mM DMSO solutions which are supplied from the Compound Managements liquid store and is a high throughput method. The dried compounds are equilibrated in an aqueous phosphate buffer (pH 7.4) for 24 hours at 25° C., the portion with the dissolved compound is then separated from the remains. The solutions are analyzed and quantified using UPLC/MS/MS, QC-samples are incorporated in each assay-run to ensure the quality of the assay.
Series [5] in a line: Log D (shake flask, 1-octanol/aqueous buffer). The class given is physicochemical. Particulars: 1-octanol/aqueous buffer, pH 7.4, pH 7.4.
Another series concerns the target hERG potassium channel (Homo sapiens (Human), UniProt Q12809).

Chain of hERG potassium channel (Q12809 whole entry): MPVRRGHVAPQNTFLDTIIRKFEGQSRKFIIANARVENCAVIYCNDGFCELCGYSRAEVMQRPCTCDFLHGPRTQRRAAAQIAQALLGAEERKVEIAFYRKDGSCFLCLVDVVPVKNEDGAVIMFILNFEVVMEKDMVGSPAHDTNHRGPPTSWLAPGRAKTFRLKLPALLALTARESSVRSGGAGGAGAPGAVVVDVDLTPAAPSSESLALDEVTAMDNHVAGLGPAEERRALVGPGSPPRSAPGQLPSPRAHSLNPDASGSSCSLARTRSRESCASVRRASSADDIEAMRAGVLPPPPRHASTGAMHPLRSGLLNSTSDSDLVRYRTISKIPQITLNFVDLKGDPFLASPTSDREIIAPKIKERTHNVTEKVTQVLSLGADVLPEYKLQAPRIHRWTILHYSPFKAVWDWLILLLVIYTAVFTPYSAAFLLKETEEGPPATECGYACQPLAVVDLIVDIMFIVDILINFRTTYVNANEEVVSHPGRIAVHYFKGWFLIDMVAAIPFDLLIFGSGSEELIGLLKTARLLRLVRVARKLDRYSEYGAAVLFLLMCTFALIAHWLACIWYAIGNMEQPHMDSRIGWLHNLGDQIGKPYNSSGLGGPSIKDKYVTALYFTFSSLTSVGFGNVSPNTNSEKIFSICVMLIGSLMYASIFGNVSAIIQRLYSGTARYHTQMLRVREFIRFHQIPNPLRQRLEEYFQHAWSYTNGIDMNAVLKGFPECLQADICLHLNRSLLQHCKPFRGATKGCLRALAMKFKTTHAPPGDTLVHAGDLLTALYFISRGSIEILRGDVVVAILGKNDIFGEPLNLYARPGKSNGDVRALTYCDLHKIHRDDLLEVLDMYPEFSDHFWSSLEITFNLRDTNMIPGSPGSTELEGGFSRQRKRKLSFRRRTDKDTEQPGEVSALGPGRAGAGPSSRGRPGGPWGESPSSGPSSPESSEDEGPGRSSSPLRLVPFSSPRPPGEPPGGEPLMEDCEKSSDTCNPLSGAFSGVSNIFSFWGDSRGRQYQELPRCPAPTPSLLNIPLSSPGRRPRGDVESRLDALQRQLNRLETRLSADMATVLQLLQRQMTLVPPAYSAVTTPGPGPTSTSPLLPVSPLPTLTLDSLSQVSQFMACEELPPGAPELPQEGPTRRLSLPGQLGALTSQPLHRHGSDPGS
Chain of Estrogen Receptor (ERα) in MCF-7 cells (P03372 whole entry): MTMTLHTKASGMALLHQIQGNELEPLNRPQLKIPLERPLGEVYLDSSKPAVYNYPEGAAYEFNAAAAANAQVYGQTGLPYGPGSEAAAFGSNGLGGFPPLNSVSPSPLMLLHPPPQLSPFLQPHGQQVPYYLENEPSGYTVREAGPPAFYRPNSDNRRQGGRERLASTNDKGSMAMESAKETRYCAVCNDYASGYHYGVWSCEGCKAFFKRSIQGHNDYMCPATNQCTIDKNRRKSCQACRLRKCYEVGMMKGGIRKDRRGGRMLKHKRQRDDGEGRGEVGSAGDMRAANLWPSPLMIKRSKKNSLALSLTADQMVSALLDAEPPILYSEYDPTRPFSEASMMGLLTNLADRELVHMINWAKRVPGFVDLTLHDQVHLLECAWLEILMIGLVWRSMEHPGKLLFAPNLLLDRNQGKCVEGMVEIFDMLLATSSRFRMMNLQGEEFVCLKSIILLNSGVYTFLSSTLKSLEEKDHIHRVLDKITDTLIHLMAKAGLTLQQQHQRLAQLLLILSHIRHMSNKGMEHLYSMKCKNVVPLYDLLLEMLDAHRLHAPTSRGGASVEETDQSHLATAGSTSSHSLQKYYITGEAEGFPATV
Chain of recombinant human Estrogen Receptor alpha ligand binding domain (ER alpha-LBD (GST)) (P03372 307-554): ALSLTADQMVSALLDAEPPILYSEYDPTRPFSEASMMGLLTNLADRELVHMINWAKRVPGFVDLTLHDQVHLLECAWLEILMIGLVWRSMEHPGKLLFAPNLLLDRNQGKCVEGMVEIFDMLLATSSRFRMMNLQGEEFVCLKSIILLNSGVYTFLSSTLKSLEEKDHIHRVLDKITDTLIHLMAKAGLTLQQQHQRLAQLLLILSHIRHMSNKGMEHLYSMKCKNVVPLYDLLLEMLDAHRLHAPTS
Protocol for hERG potassium channel: The assay was conducted as follows with all reagents used at room temperature unless otherwise stated.
All compounds were acoustically dispensed in quadruplicate using a Labcyte Echo.
Calculation of results is performed using APC package within Genedata. For the routine normalization of well data with Neutral and Inhibitor control well groups as reference, GeneData Assay Analyzer uses the following equation to normalize the signal values to the desired signal range:
[formula] x is the measured raw signal value of a well is the median of the measured signal values for the Central Reference (Neutral) wells on a plate is the median of the measured signal values for the Scale Reference (Inhibitor) wells on a plate CR is the desired median normalized value for the Central Reference (Neutral) SR is the desired median normalized value for the Scale Reference (Inhibitor)

On to `C[C@@H]1Cc2c([nH]c3ccc(F)cc23)[C@@H](c2c(F)ccc(NCCNCCCF)c2F)N1CC(F)(F)CO` [Example 89, 3-((1R,3R)-1-(2,6-difluoro-3-((2-((3-fluoropropyl)amino)ethyl)amino)phenyl)-6-fluoro-3-methyl-1,3,4,9-tetrahydro-2H-pyrido[3,4-b]indol-2-yl)-2,2-difluoropropan-1-ol], for which the IC50 in series [1] amounted to 0.91 nM; in series [2], 0.14 nM; against hERG potassium channel it was 6100 nM. The “Human plasma protein binding (% free)” value in series [3] was less than 3.4 % free. This compound registered a solubility at 24 h in series [4] of 670 µM (≈ 354 µg/mL). The same compound displayed a pH-dependent lipophilicity (logD) in series [5] of 2.7.
As for `C[C@@H]1Cc2c([nH]c3ccccc23)[C@@H](c2nccc(NCCNCCCF)c2F)N1CC(F)(F)F` [Example 94, N1-(3-fluoro-2-((1S,3R)-3-methyl-2-(2,2,2-trifluoroethyl)-2,3,4,9-tetrahydro-1H-pyrido[3,4-b]indol-1-yl)pyridin-4-yl)-N2-(3-fluoropropyl)ethane-1,2-diamine], the IC50 in series [1] is 3.6 nM; in series [2] it was 9.2 nM; against hERG potassium channel, 9900 nM. The “Human plasma protein binding (% free)” value in series [3] is recorded as 7 % free. Besides, in series [4], the solubility at 24 h amounted to 698 µM (≈ 336 µg/mL). In addition, the pH-dependent lipophilicity (logD) in series [5] was found to be 2.4.
`COc1ccc(OCCNCCCF)c(C)c1[C@@H]1c2[nH]c3ccccc3c2C[C@@H](C)N1CC(F)(F)F` [Example 26, 3-fluoro-N-(2-(4-methoxy-2-methyl-3-((1R,3R)-3-methyl-2-(2,2,2-trifluoroethyl)-2,3,4,9-tetrahydro-1H-pyrido[3,4-b]indol-1-yl)phenoxy)ethyl)propan-1-amine]: the IC50 was 0.85 nM in series [1], 0.16 nM in series [2] and 4100 nM against hERG potassium channel. The “Human plasma protein binding (% free)” value in series [3] is 0.22 % free. This compound also had a solubility at 24 h in series [4] of 8 µM (≈ 4.06 µg/mL). Besides, the logD in series [5] amounted to 4.6.
With `COc1ccc(OCCNCCCF)c(F)c1[C@@H]1c2[nH]c3ccccc3c2C[C@@H](C)N1CC1(F)COC1` [Example 84, 3-fluoro-N-(2-(2-fluoro-3-((1R,3R)-2-((3-fluorooxetan-3-yl)methyl)-3-methyl-2,3,4,9-tetrahydro-1H-pyrido[3,4-b]indol-1-yl)-4-methoxyphenoxy)ethyl)propan-1-amine], the IC50 came out at 0.94 nM in series [1], 0.16 nM in series [2] and 2800 nM against hERG potassium channel. Moreover, the “% downregulation (in brackets)” value in series [2] is reported as 83%. Besides, the “Human plasma protein binding (% free)” value in series [3] was 6 % free. The compound also registered a solubility at 24 h in series [4] of 640 µM (≈ 331 µg/mL). Further, in series [5], the logD came out at 2.4.
In the case of `C[C@@H]1Cc2c([nH]c3ccccc23)[C@@H](c2cccc(OCCNCCCF)c2C(F)F)N1CC(F)(F)CO` [Example 68, 3-((1R,3R)-1-(2-(difluoromethyl)-3-(2-((3-fluoropropyl)amino)ethoxy)phenyl)-3-methyl-1,3,4,9-tetrahydro-2H-pyrido[3,4-b]indol-2-yl)-2,2-difluoropropan-1-ol], the figures for the 50% inhibitory concentration (IC50) (in series [1]; in series [2]; against hERG potassium channel) were 0.69 nM, 0.095 nM and 2000 nM, respectively. Moreover, the “Human plasma protein binding (% free)” value in series [3] came to 1.2 % free. In series [4], this compound showed a solubility at 24 h of 56.6 µM (≈ 29.7 µg/mL). The logD in series [5] is 3.2.
In the case of `Cc1c([C@@H]2c3[nH]c4ccccc4c3C[C@@H](C)N2C[C@H](C)C(=O)O)ccnc1OCCNCCCF` [Example 132, (S)-3-((1R,3R)-1-(2-(2-((3-fluoropropyl)amino)ethoxy)-3-methylpyridin-4-yl)-3-methyl-1,3,4,9-tetrahydro-2H-pyrido[3,4-b]indol-2-yl)-2-methylpropanoic acid], the IC50 is 2 nM in series [1], 0.98 nM in series [2] and more than 40000 nM on hERG potassium channel. Moreover, the “Human plasma protein binding (% free)” value in series [3] is on record as 34 % free. For the same compound, in series [4], the solubility at 24 h came to 914 µM (≈ 441 µg/mL). This compound displayed a logD in series [5] of 0.6.
With `C[C@@H]1Cc2c([nH]c3ccccc23)[C@@H](c2c(F)cnc(OCCNCCCF)c2F)N1CC1(F)CC1` [Example 108, N-(2-((3,5-difluoro-4-((1R,3R)-2-((1-fluorocyclopropyl)methyl)-3-methyl-2,3,4,9-tetrahydro-1H-pyrido[3,4-b]indol-1-yl)pyridin-2-yl)oxy)ethyl)-3-fluoropropan-1-amine], the IC50 in series [1] is 1 nM; in series [2] it was 0.3 nM; at hERG potassium channel, 6000 nM. Further, the “Human plasma protein binding (% free)” value in series [3] is 2.3 % free. The same compound showed a solubility at 24 h in series [4] of 375 µM (≈ 184 µg/mL). The compound also displayed a logD in series [5] of 3.2.
For the compound `COc1ncc(NCCNCCCF)cc1[C@@H]1c2[nH]c3ccccc3c2C[C@@H](C)N1CC(F)(F)F` [Example 41, N1-(3-fluoropropyl)-N2-(6-methoxy-5-((1R,3R)-3-methyl-2-(2,2,2-trifluoroethyl)-2,3,4,9-tetrahydro-1H-pyrido[3,4-b]indol-1-yl)pyridin-3-yl)ethane-1,2-diamine], the IC50 in series [1] was determined as 12 nM; in series [2] it was 6 nM; against hERG potassium channel, 4900 nM. In addition, the “Human plasma protein binding (% free)” value in series [3] came to 1.8 % free. In addition, the solubility at 24 h in series [4] worked out at 242 µM (≈ 119 µg/mL). The same compound gave a logD in series [5] of 2.9.
In the case of `C[C@@H]1Cc2c([nH]c3ccccc23)[C@@H](c2c(F)ccc(OCCN(C)CCCF)c2F)N1CC1(F)COC1` [Example 154, N-(2-(2,4-difluoro-3-((1R,3R)-2-((3-fluorooxetan-3-yl)methyl)-3-methyl-2,3,4,9-tetrahydro-1H-pyrido[3,4-b]indol-1-yl)phenoxy)ethyl)-3-fluoro-N-methylpropan-1-amine], the IC50 in series [1] was determined as 1.2 nM; in series [2] it was 0.89 nM; on hERG potassium channel it was 4300 nM. The “% downregulation (in brackets)” value in series [2] amounted to 79%. The “Human plasma protein binding (% free)” value in series [3] amounted to 2.7 % free. Besides, in series [4], the solubility at 24 h turned out to be 49 µM (≈ 25.5 µg/mL). Moreover, in series [5], the logD came to 3.5.
`C[C@@H]1Cc2c([nH]c3ccccc23)[C@@H](c2c(F)c(F)cc(OCCNCCCF)c2F)N1CC(F)(F)F` [Example 32, 3-fluoro-N-(2-(2,4,5-trifluoro-3-((1R,3R)-3-methyl-2-(2,2,2-trifluoroethyl)-2,3,4,9-tetrahydro-1H-pyrido[3,4-b]indol-1-yl)phenoxy)ethyl)propan-1-amine]: the IC50 in series [1] was 2.7 nM; in series [2], 0.38 nM; against hERG potassium channel it was 5800 nM. For the same compound, in series [3], the “Human plasma protein binding (% free)” value is recorded as 0.52 % free. Also, in series [4], the solubility at 24 h amounted to 55 µM (≈ 28.5 µg/mL). The logD in series [5] came out at 4.1.
Take `C[C@@H]1Cc2c([nH]c3ccccc23)[C@@H](c2cccc(OCCNCCCF)c2Cl)N1CC(F)(F)F` [Example 25, N-(2-(2-chloro-3-((1R,3R)-3-methyl-2-(2,2,2-trifluoroethyl)-2,3,4,9-tetrahydro-1H-pyrido[3,4-b]indol-1-yl)phenoxy)ethyl)-3-fluoropropan-1-amine]: the figures for the concentration for half-maximal inhibition (IC50) (in series [1]; in series [2]; on hERG potassium channel) were 0.88 nM, 0.25 nM and 5200 nM, respectively. Further, in series [3], the “Human plasma protein binding (% free)” value worked out at 0.080 % free. Also, in series [4], the solubility at 24 h came out at 19 µM (≈ 9.46 µg/mL). In series [5], the logD was found to be 4.3.
Regarding `COc1ccc(NCCNCCCF)nc1[C@@H]1c2[nH]c3ccccc3c2C[C@@H](C)N1CC(F)(F)F` [Example 43, N1-(3-fluoropropyl)-N2-(5-methoxy-6-((1S,3R)-3-methyl-2-(2,2,2-trifluoroethyl)-2,3,4,9-tetrahydro-1H-pyrido[3,4-b]indol-1-yl)pyridin-2-yl)ethane-1,2-diamine], the IC50 in series [1] turned out to be 82 nM; in series [2] it was 220 nM; against hERG potassium channel, 3100 nM. The “Human plasma protein binding (% free)” value in series [3] was determined as 2.8 % free. Moreover, the solubility at 24 h in series [4] is 358 µM (≈ 177 µg/mL). This compound registered a logD in series [5] of 2.2.
As for `C[C@@H]1Cc2c([nH]c3ccccc23)[C@@H](c2cc(OCCNCCCF)cc(F)c2F)N1CC(F)(F)F` [Example 30, N-(2-(3,4-difluoro-5-((1R,3R)-3-methyl-2-(2,2,2-trifluoroethyl)-2,3,4,9-tetrahydro-1H-pyrido[3,4-b]indol-1-yl)phenoxy)ethyl)-3-fluoropropan-1-amine], the IC50 in series [1] was 2.1 nM; in series [2], 0.32 nM; at hERG potassium channel, 2300 nM. Besides, the “Human plasma protein binding (% free)” value in series [3] turned out to be 0.72 % free. The compound also showed a solubility at 24 h in series [4] of 39 µM (≈ 19.5 µg/mL). The compound also yielded a log distribution coefficient (logD) in series [5] of 4.1.
As to `C[C@@H]1Cc2c([nH]c3ccccc23)[C@@H](c2c(Cl)ccc(OCCNCCCF)c2F)N1C[C@H](C)C(=O)O` [Example 54, (S)-3-((1R,3R)-1-(6-chloro-2-fluoro-3-(2-((3-fluoropropyl)amino)ethoxy)phenyl)-3-methyl-1,3,4,9-tetrahydro-2H-pyrido[3,4-b]indol-2-yl)-2-methylpropanoic acid], the IC50 in series [1] is 5.9 nM; in series [2] it was 1 nM; at hERG potassium channel, more than 40000 nM. Besides, the “Human plasma protein binding (% free)” value in series [3] amounted to 18 % free. In series [4], this compound registered a solubility at 24 h of more than 1000 µM. For the same compound, the logD in series [5] was 0.9.
Turning to `C[C@@H]1Cc2c([nH]c3ccccc23)[C@@H](c2cc(F)cc(OCCNCCCF)c2F)N1CC(F)(F)F` [Example 31, N-(2-(2,5-difluoro-3-((1R,3R)-3-methyl-2-(2,2,2-trifluoroethyl)-2,3,4,9-tetrahydro-1H-pyrido[3,4-b]indol-1-yl)phenoxy)ethyl)-3-fluoropropan-1-amine], the IC50 in series [1] turned out to be 5.4 nM; in series [2] it was 7.2 nM; against hERG potassium channel it was 11000 nM. For the same compound, the “Human plasma protein binding (% free)” value in series [3] worked out at 0.41 % free. The compound further had a solubility at 24 h in series [4] of 40 µM (≈ 20 µg/mL). In series [5], the logD was determined as 4.1.

A word on the IC50: it is the point on the concentration scale where inhibition reaches its midpoint. By solubility is commonly meant the concentration that dissolves in the medium under given conditions. For orientation: logD means lipophilicity at a set pH, counting ionised and neutral species.

Source of the values: patent publication US10221173B2, “Chemical compounds” (AstraZeneca AB, priority 2017, dated 2019).
